Measurements reported in patent US7335500B2, “Production of fucosylated carbohydrates by enzymatic fucosylation synthesis of sugar nucleotides; and in situ regeneration of GDP-fucose” (The Scripps Research Institute, priority 1991, dated 2008).
Read-outs that look alike come from different tables or passages of the source.

Assays:
α1,3/4Fucosyltransferase = biological target: T1, α1,3/4Fucosyltransferase (Homo sapiens, UniProt P21217); experiment: Substrate specificity and inhibition study of α1,3/4FucT (GDP-14C-Fuc transfer assay); type: biochemical; conditions: for Vrel (relative velocities): 0.20 mM GDP-Fuc, 20 mM MnCl2, 10 mM acceptor, Galβ1,4GlcNAc = 100
T1 sequence (P21217 1-361): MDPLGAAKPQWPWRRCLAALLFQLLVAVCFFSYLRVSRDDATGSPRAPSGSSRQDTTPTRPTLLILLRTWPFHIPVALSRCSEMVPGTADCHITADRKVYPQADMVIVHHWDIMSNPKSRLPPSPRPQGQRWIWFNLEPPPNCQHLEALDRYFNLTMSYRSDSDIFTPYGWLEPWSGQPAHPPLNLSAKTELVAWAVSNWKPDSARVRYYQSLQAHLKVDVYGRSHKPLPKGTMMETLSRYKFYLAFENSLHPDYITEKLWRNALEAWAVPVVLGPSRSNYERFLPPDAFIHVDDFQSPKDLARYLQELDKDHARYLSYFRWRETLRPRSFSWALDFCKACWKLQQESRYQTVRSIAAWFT
Method: (§1) The assay procedure was essentially the same as described previously [Fukowska-Latallo et al, Gene & Development, 4:1288 (1990)] with some modifications. A stock mixture containing 0.25 mM GDP-^14C-Fuc (5000 cpm/mL), 6.25 mM ATP, 25 mM MnCl2 and 62.5 mM sodium cacodylate buffer, pH 6.2 was mixed freshly and kept on ice. […] The incubation was carried out at 37° C. for 30 to 240 minutes depending upon the acceptor under study. Separate assays in the absence of acceptor were used to correct for background hydrolysis of GDP-Fuc. Upon completion of incubation, 400 μL of a 25 percent (v/v) suspension of QAE-Sephadex was added. […] From the supernatant fluid, 200 μL were extracted and mixed with 10 mL of scintillation cocktail. The radioactivity was counted on a scintillation counter. […] This assay can be run in the absence of ATP.

[1] = biological target: T2, human plasma type α1,3FucT (Homo sapiens, UniProt Q11128); experiment: Substrate specificity and inhibition study of α1,3FucT (GDP-14C-Fuc transfer assay); type: biochemical; conditions: for Vrel (relative maximal velocities) / Km / IC50: 0.1 mM GDP-Fuc; for Vrel (relative maximal velocities): 10 mM MnCl2 and 10 mM Galβ1,4GlcNAc, Galβ1,4GlcNAc = 100; for Km: acceptor substrate, 10 mM MnCl2; for relative maximum velocity (Vrel) based on LacNAc: relative rate at Vmax; for IC50: 10 mM Mn2+ and 10 mM LacNAc at pH 6.2 and 37° C.; for inhibition in combination with GDP: GDP present at its IC50 of 0.05 mM, FIG. 3: 34 mM Compound 50, 0.2 mM 14C-GDP-fucose, 20 mM MnCl2, pH 6.2; for mode of inhibition: versus LacNAc
T2 sequence (Q11128 1-374): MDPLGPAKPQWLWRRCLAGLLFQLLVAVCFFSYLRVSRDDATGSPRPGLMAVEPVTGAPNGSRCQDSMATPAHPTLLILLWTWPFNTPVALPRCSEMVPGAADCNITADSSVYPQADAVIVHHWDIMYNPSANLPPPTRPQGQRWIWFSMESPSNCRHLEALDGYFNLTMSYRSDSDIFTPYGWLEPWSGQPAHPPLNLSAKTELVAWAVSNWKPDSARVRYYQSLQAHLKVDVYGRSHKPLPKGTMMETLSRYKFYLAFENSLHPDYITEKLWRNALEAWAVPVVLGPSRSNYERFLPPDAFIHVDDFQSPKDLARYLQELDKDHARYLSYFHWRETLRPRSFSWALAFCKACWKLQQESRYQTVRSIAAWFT
Method: as §1

GalT [2] = biological target: T3, GalT (Bos taurus, UniProt P08037); conditions: cited from earlier work
T3 construct: purchased Sigma
T3 sequence (P08037 79-402 limits assumed): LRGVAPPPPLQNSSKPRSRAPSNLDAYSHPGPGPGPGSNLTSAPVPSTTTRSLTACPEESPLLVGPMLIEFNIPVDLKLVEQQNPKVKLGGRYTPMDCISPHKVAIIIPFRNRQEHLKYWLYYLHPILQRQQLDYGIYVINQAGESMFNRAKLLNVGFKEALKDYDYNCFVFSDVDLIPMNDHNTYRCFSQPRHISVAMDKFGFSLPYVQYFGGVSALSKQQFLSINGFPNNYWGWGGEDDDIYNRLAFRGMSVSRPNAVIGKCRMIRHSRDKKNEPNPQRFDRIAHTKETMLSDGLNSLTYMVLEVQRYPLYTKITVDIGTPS

GalT [3] = biological target: T3, GalT; experiment: Kinetic study of GalT (rate of LacNAc formation, UDP-14C-Gal); type: biochemical; conditions: 100 mM cacodylate pH 7.5, 9.3 mM Mn2+, 0.1 mM UDP-Gal, 20° C.
Method: Initial velocities of the enzyme reaction were determined by measuring the rate of LacNAc formation with a slight modification of the assay by Pierce et al. [Pierce et al., Anal. Biochem., 102:441 (1980)]. All the reactions were carried out in 100 mM cacodylate buffer (pH 7.5) with fixed concentrations of Mn^2+ (9.3 mm) and UDP-Gal (0.1 mM; 58.5 cpm/pmol of UDP-^14C-Gal) in […] of solution. The reaction was initiated by the addition of GalT (0.05 U, […]; from Sigma) and permitted to stand at 20° C. for 30 minutes. Nonspecific hydrolysis of UDP-Gal was measured by the control reaction in the absence of GalT. The reaction was stopped by passing through a column of QAE-Sephadex ([…]), and eluted by gentle air pressure to remove the unreacted UDP-Gal. The reaction vial was rinsed twice with […] of water each and passed through the resin column. The filtrates were collected and directly transferred into a scintillation vial. The scintillation fluid was added to the vial, and then radioactivity was counted by a liquid scintillation counter. […] Res., 159:315 (1987)] and Ki (0.46±0.06 mM) for UDP. Similarly, IC50 value of UDP for GalT was determined using different concentration of UDP.

| Compound | Vrel (relative velocities) (α1,3/4Fucosyltransferase) | Vrel (relative maximal velocities) [1] | IC50 [1] [mM] | also measured |
| --- | --- | --- | --- | --- |
| CC(=O)NC1C(O)OC(CO)C(OC2OC(CO)C(O)C(OC3(C(=O)O)CC(O)C(NC(C)=O)C(C(O)C(O)CO)O3)C2O)C1O (stereo not shown) [NeuAcα2,3Galβ1,4GlcNAc] | 60 | 620 |  | Km [1]: 100 mM; relative maximum velocity (Vrel) based on LacNAc [1]: 620% |
| OC[C@H]1NC[C@H](O)[C@@H](O)[C@@H]1O [Deoxynojirimycin] |  |  |  | substrate for α1,4GalT (in words) (GalT [2]; Wong et al., J. Am. Chem. Soc., 113:8137-8145 (1991)): a substrate |
| C=CCO[C@@H]1O[C@H](CO)[C@@H](O[C@@H]2O[C@H](CO)[C@H](O)[C@H](O)[C@H]2O)C[C@H]1NC(C)=O [Galβ1,4(3-deoxy)GlcNAcβOallyl] |  |  |  | inhibition of α1,3FucT (in words) ([1]; acceptor substrate analog): weak inhibitor |
| C=CCO[C@@H]1O[C@H](CO)[C@@H](O[C@@H]2O[C@H](CO)[C@H](O)[C@H](O)[C@H]2O)[C@H](O)[C@H]1NC(C)=O [Galβ1,4GlcNAcβOallyl] |  | 64 |  | Km [1]: 16 mM |
| CC(=O)N[C@H]1[C@H](O[C@H]2[C@H](O)[C@@H](NC(C)=O)C(O)O[C@@H]2CO)O[C@H](CO)[C@@H](O)[C@@H]1O (stereo partly shown) [GlcNAcβ1,4GlcNAc] | 23 |  | > 50 |  |
| NeuAcα2,3Galβ1,4GlcNAcβOallyl |  | 380 |  |  |
| C[C@@H]1OC(OP(=O)(O)OP(=O)(O)OC[C@H]2O[C@@H](n3cnc4c(=O)[nH]c(N)nc43)[C@H](O)[C@@H]2O)[C@@H](O)[C@H](O)[C@@H]1O (stereo partly shown) [GDP-Fuc, guanosine 5′-diphospho fucose] |  |  |  | inhibition of α1,3/4FucT (in words) (α1,3/4Fucosyltransferase): not an inhibitor; inhibition of α1,3FucT (in words) ([1]; at concentration above 0.2 mM in the presence of 10 mM LacNAc): potent inhibitor |
| OC[C@H]1NC[C@H](O)[C@@H](O)[C@@H]1O[C@@H]1O[C@H](CO)[C@H](O)[C@H](O)[C@H]1O [Galβ1,4deoxynojirimycin] |  |  | 8 | IC50 (α1,3/4Fucosyltransferase; inhibitor concentration required to give 50% inhibition with 0.2 mM GDP-Fuc): 40 mM |
| CC1N[C@@H](CO)C(O)[C@@H]1O (stereo partly drawn) [Compound 50, (2R)-Methyl-(5S)-hydroxymethyl-(3R, 4R)-dihydroxyprollidine] |  |  | 34 | inhibition in combination with GDP [1]: profound, synergistic inhibition; mode of inhibition [1]: competitive inhibitor |
| Galβ1,4GlcNAc | 100 | 100 |  | Km [1]: 35 mM |
| OC[C@H]1O[C@@H](O[C@H]2[C@H](O)[C@@H](O)C(O)O[C@@H]2CO)[C@H](O)[C@@H](O)[C@H]1O (stereo partly shown) [Galβ1,4Glc] | 120 | 150 |  | relative maximum velocity (Vrel) based on LacNAc [1]: 150% |
| Nc1nc2c(ncn2[C@@H]2O[C@H](COP(=O)(O)OP(=O)(O)O)[C@@H](O)[C@H]2O)c(=O)[nH]1 [GDP, guanosine 5′-diphosphate] |  |  | 0.05 | Ki ([1]; footnote of Table 3, read-out: Ki): 19 mM; Ki ([1]; noncompetitive inhibitor versus LacNAc, read-out: Kii): 0.13 mM; Ki ([1]; noncompetitive inhibitor versus LacNAc, read-out: Kis): 0.16 mM; mode of inhibition [1]: noncompetitive inhibitor |
| CC(=O)N[C@H]1C(O)O[C@H](CO)[C@@H](O)[C@@H]1O[C@@H]1O[C@H](CO)[C@H](O)[C@H](O)[C@H]1O (stereo partly shown) [Galβ1,3GlcNAc] | 580 | 130 | > 50 |  |
| OCC1N[C@@H](CO)C(O)[C@@H]1O (stereo partly shown) |  |  | 52 |  |
| CC(=O)N[C@H]1C(O)O[C@H](CO)[C@H](O)[C@@H]1O[C@@H]1O[C@H](CO)[C@H](O)[C@H](O)[C@H]1O (stereo partly shown) [Galβ1,3GalNAc] |  |  | > 100 |  |
| O=c1ccn([C@@H]2O[C@H](COP(=O)(O)OP(=O)(O)O)[C@@H](O)[C@H]2O)c(=O)[nH]1 [UDP, uridine 5′-diphosphate] |  |  |  | Ki (GalT [3]): 0.46 mM |
| CC(=O)N[C@H]1C(O)O[C@H](CO)[C@@H](O)[C@@H]1O (stereo partly shown) [GlcNAc, N-acetylglucosamine] |  |  |  | Km (GalT [2]; reported in Palcic et al., Carbohydr. Res., 159:315 (1987)): 1.3 ± 1 mM |
| CC(=O)N[C@H]1C(O)O[C@H](CO)[C@H](O[C@@H]2O[C@H](CO)[C@H](O)[C@H](O)[C@H]2O)[C@@H]1O (stereo partly shown) [Galβ1,4GalNAc] | 27 |  |  |  |

Second part, led by results:

| Vrel (relative velocities) (α1,3/4Fucosyltransferase) | Vrel (relative maximal velocities) [1] | IC50 [1] [mM] | Compound | also measured |
| --- | --- | --- | --- | --- |
|  |  | 80 | CC1NC(CO)C(O)C1O (stereo not shown) [Compound 53] | inhibition in combination with GDP [1]: profound, synergistic inhibition; mode of inhibition [1]: competitive inhibitor |
| 250 |  |  | Fucα1,2Galβ1,4Glc |  |
|  | 13 |  | CC(=O)N[C@@H]1[C@@H](O)[C@H](O[C@@H]2O[C@H](CO[C@]3(C(=O)O)C[C@H](O)[C@@H](NC(C)=O)[C@H]([C@H](O)[C@H](O)CO)O3)[C@H](O)[C@H](O)[C@H]2O)[C@@H](CO)O[C@H]1O [NeuAcα2,6Galβ1,4GlcNAc] | Km [1]: 70 mM; times less active as a substrate than the α2,3-isomer ([1]; compared with NeuAcα2,3Galβ1,4GlcNAc): about 50 times |
|  | 330 |  | CC(=O)N[C@H]1C([C@H](O)[C@H](O)CO)O[C@@](OC2[C@H](O)C(O[C@H]3C(O)C=COC3CO)OC(CO)[C@@H]2O)(C(=O)O)C[C@H]1O (stereo partly shown) [NeuAcα2,3Galβ1,4Glucal] | Km [1]: 64 mM; relative maximum velocity (Vrel) based on LacNAc [1]: 330% |
|  |  | 2 | Nc1nc2c(ncn2C2OC(COP(=O)(O)OP(=O)(O)OC3OC(CO)C(O)C(O)C3O)C(O)C2O)c(=O)[nH]1 (stereo not shown) [GDP-Man, guanosine 5′-diphospho-mannose] |  |
| 310 | 51 |  | OC[C@H]1O[C@@H](O[C@H]2[C@H](O)[C@@H](O)C(O)S[C@@H]2CO)[C@H](O)[C@@H](O)[C@H]1O (stereo partly shown) [Galβ1,4(5-thioGlc), Galβ1,4(5-thio)Glc] | Km [1]: 12 mM |
| 13 |  |  | CC(=O)N[C@H]1[C@H](OC[C@H]2O[C@@H](O[C@H]3[C@H](O)[C@@H](O)C(O)O[C@@H]3CO)[C@H](O)[C@@H](O)[C@H]2O)O[C@H](CO)[C@@H](O)[C@@H]1O (stereo partly shown) [GlcNAcβ1,6Galβ1,4Glc] |  |
